Data set [1] concerns Klebsiella pneumoniae. As to the kind of experiment: Antibacterial activity against Klebsiella pneumoniae ATCC 10031 assessed as inhibition in bacterial growth incubated for 20 to 24 hrs by CLSI based broth microdilution method. Format: functional. To be noted: time 20-24 hrs. A general note: In broth dilution the organism is exposed to a series of concentrations in liquid medium.

Data set [2] has as its target T1, hERG (KCNH2) (Homo sapiens, UniProt Q12809). As to the kind of experiment: Inhibition of hERG potassium channel expressed in CHO cells at 10 uM by electrophysiological patch clamp assay relative to control. Type of data set: toxicity, cell-based. The settings on record: CHO cells expressing hERG. On the technique in general: The hERG channel carries a current that helps repolarise heart muscle cells.

Data set [3] concerns Escherichia coli. As to the kind of experiment: Antibacterial activity against Escherichia coli K-12 BW25113 assessed as inhibition in bacterial growth incubated for 20 to 24 hrs by CLSI based broth microdilution method. Format: functional.
The test system of data set [4] is Pseudomonas aeruginosa. As to the kind of experiment: Antibacterial activity against Pseudomonas aeruginosa NCTC 13437 assessed as inhibition in bacterial growth incubated for 20 to 24 hrs by CLSI based broth microdilution method. To be noted: Pseudomonas aeruginosa, NCTC 13437, time 20-24 hrs; read-out: MIC. Format: functional.
Data set [5] deals with T1, hERG (KCNH2). Put plainly: Inhibition of hERG potassium channel expressed in CHO cells at 1 uM by electrophysiological patch clamp assay relative to control. Format: toxicity, cell-based. The settings on record: CHO cells expressing hERG.
Data set [6] has as its system Pseudomonas aeruginosa. As to the kind of experiment: Antibacterial activity against Pseudomonas aeruginosa NCTC 11451 assessed as inhibition in bacterial growth incubated for 20 to 24 hrs by CLSI based broth microdilution method. The settings on record: Pseudomonas aeruginosa, NCTC 11451, time 20-24 hrs; read-out: MIC. Type of data set: functional.
For data set [7], the system named is Acinetobacter baumannii. As to the kind of experiment: Antibacterial activity against Acinetobacter baumannii ATCC 19606 assessed as inhibition in bacterial growth incubated for 20 to 24 hrs by CLSI based broth microdilution method. Format: functional. The settings on record: time 20-24 hrs.
In data set [8] the test system is Staphylococcus aureus. Put plainly: Antibacterial activity against Staphylococcus aureus ATCC 29213 assessed as inhibition in bacterial growth incubated for 20 to 24 hrs by CLSI based broth microdilution method. Type of data set: functional. The settings on record: Staphylococcus aureus, ATCC 29213; time 20-24 hrs; read-out: MIC.
Data set [9] relates to Klebsiella pneumoniae. As to the kind of experiment: Antibacterial activity against Klebsiella pneumoniae ATCC BAA-1705 assessed as inhibition in bacterial growth incubated for 20 to 24 hrs by CLSI based broth microdilution method. Type of data set: functional. To be noted: time 20-24 hrs.
Data set [10] has as its system Acinetobacter baumannii. Put plainly: Antibacterial activity against Acinetobacter baumannii ATCC BAA-747 assessed as inhibition in bacterial growth incubated for 20 to 24 hrs by CLSI based broth microdilution method. Type of data set: functional. The settings on record: Acinetobacter baumannii, ATCC BAA-747, time 20-24 hrs; read-out: MIC.
A further data set concerns the target DNA gyrase (Escherichia coli, UniProt P0AES4+P0AES6). As to the kind of experiment: Inhibition of Escherichia coli DNA gyrase incubated for 80 mins by Transcreener ADP2 FI assay. Type of data set: protein-complex assay.
Data set [11] deals with Escherichia coli. Put plainly: Antibacterial activity against Escherichia coli ATCC BAA-2340 assessed as inhibition in bacterial growth incubated for 20 to 24 hrs by CLSI based broth microdilution method. Format: functional. The settings on record: Escherichia coli, ATCC BAA-2340, time 20-24 hrs; read-out: MIC.
Data set [12] relates to Pseudomonas aeruginosa. Put plainly: Antibacterial activity against Pseudomonas aeruginosa ATCC 27853 assessed as inhibition in bacterial growth incubated for 20 to 24 hrs by CLSI based broth microdilution method. Type of data set: functional. To be noted: time 20-24 hrs.
The test system of data set [13] is Klebsiella pneumoniae. As to the kind of experiment: Antibacterial activity against Klebsiella pneumoniae ATCC BAA-2146 assessed as inhibition in bacterial growth incubated for 20 to 24 hrs by CLSI based broth microdilution method. Type of data set: functional. To be noted: Klebsiella pneumoniae, ATCC BAA-2146, time 20-24 hrs; read-out: MIC.
Data set [14] deals with Escherichia coli. Put plainly: Antibacterial activity against Escherichia coli K-12 BW25113 deltaTolC assessed as inhibition in bacterial growth incubated for 20 to 24 hrs by CLSI based broth microdilution method. Type of data set: functional. To be noted: time 20-24 hrs.
The subject of data set [15] is Escherichia coli. Put plainly: Antibacterial activity against Escherichia coli ATCC 35218 assessed as inhibition in bacterial growth incubated for 20 to 24 hrs by CLSI based broth microdilution method. Type of data set: functional. To be noted: Escherichia coli, ATCC 35218, time 20-24 hrs; read-out: MIC.
In data set [16] the test system is Acinetobacter baumannii. As to the kind of experiment: Antibacterial activity against Acinetobacter baumannii ATCC 51432 assessed as inhibition in bacterial growth incubated for 20 to 24 hrs by CLSI based broth microdilution method. Type of data set: functional. The settings on record: Acinetobacter baumannii, ATCC 51432, time 20-24 hrs; read-out: MIC.
Data set [17] has as its system Staphylococcus aureus. Put plainly: Antibacterial activity against Staphylococcus aureus ATCC BAA-1556 assessed as inhibition in bacterial growth incubated for 20 to 24 hrs by CLSI based broth microdilution method. Type of data set: functional. The settings on record: Staphylococcus aureus, ATCC BAA-1556, time 20-24 hrs; read-out: MIC.
For data set [18], the system named is Escherichia coli. Put plainly: Antibacterial activity against Escherichia coli ATCC 25922 assessed as inhibition in bacterial growth incubated for 20 to 24 hrs by CLSI based broth microdilution method. To be noted: time 20-24 hrs. Type of data set: functional.
The test system of data set [19] is Klebsiella pneumoniae. As to the kind of experiment: Antibacterial activity against Klebsiella pneumoniae ATCC 700603 assessed as inhibition in bacterial growth incubated for 20 to 24 hrs by CLSI based broth microdilution method. Type of data set: functional. The settings on record: Klebsiella pneumoniae, ATCC 700603, time 20-24 hrs; read-out: MIC.
Data set [20] concerns the target T1, hERG (KCNH2). As to the kind of experiment: (§1) Inhibition of hERG potassium channel expressed in CHO cells by electrophysiological patch clamp assay. To be noted: human, CHO cells expressing hERG. Type of data set: toxicity, cell-based.
Data set [21] deals with Voltage-gated inwardly rectifying potassium channel KCNH2 (Homo sapiens, UniProt Q12809). The description is as §1. Format: toxicity, cell-based.
A short description of data set [22]: Inhibition of Escherichia coli topoisomerase 4 incubated for 120 mins by Transcreener ADP2 FI assay.
The mark [23] stands for this setting: Escherichia coli, K-12 BW25113, time 20-24 hrs, read-out: MIC.

Each structure is given as a SMILES string. Converted amounts (≈) assume the structure as drawn.

Sequence of Voltage-gated inwardly rectifying potassium channel KCNH2 (Q12809 whole entry): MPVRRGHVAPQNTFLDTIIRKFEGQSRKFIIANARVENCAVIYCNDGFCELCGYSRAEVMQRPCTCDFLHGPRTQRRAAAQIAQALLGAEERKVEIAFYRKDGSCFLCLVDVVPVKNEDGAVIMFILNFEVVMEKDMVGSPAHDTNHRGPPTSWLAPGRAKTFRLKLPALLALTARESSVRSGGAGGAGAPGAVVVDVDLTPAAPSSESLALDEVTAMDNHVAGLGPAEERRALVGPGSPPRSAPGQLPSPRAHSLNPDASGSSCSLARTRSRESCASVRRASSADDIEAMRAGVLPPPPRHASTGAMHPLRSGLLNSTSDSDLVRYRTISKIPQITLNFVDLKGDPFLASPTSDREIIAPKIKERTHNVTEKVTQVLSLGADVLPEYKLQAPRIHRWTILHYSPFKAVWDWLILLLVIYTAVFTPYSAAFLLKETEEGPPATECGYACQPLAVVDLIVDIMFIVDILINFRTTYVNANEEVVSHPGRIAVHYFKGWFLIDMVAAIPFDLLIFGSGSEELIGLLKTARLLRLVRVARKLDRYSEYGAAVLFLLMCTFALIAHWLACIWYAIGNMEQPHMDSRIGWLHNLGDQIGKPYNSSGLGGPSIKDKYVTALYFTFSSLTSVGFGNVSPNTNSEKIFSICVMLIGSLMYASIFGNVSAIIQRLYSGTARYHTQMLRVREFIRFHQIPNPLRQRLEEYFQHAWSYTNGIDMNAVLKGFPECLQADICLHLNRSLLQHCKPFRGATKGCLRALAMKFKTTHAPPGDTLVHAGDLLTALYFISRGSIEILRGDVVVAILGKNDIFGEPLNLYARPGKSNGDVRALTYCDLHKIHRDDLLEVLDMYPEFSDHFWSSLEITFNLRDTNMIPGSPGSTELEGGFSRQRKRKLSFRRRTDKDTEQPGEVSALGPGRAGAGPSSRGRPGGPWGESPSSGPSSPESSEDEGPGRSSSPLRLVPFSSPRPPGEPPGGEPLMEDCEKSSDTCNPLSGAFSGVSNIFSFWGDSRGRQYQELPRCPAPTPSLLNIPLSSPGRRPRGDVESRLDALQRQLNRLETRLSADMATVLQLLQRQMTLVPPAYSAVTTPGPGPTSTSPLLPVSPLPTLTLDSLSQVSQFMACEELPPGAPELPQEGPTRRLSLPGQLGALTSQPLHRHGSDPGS
T1 sequence (Q12809 whole entry): as above

Consider `CC(N)COc1cc(F)c2c(c1)CC(CNCCC1CN(c3ccc4c(n3)NC(=O)CO4)C(=O)O1)C2` (stereo not given), for which the MIC in the data set with Klebsiella pneumoniae [1] was at most 0.06 µg/mL; in the data set on Escherichia coli [3] (setting [23]), at most 0.06 µg/mL; in the data set on Pseudomonas aeruginosa [4], 1 µg/mL (≈ 2 µM); with Pseudomonas aeruginosa [6], 2 µg/mL (≈ 4 µM); with Acinetobacter baumannii [7] it was 2 µg/mL (≈ 4 µM); in the data set with Staphylococcus aureus [8] it was at most 0.06 µg/mL. In addition, the MIC was 1 µg/mL (≈ 2 µM) in the data set on Klebsiella pneumoniae [9]; 0.125 µg/mL (≈ 0.25 µM) in the data set on Acinetobacter baumannii [10]; 0.25 µg/mL (≈ 0.5 µM) in the data set on Escherichia coli [11]; 0.25 µg/mL (≈ 0.5 µM) with Pseudomonas aeruginosa [12]; 2 µg/mL (≈ 4 µM) in the data set with Klebsiella pneumoniae [13]; at most 0.06 µg/mL in the data set on Escherichia coli [14]. Besides, the MIC in the data set on Escherichia coli [15] turned out to be 0.25 µg/mL (≈ 0.5 µM); in the data set on Acinetobacter baumannii [16], 2 µg/mL (≈ 4 µM); in the data set on Staphylococcus aureus [17], 0.125 µg/mL (≈ 0.25 µM); in the data set with Escherichia coli [18], 0.25 µg/mL (≈ 0.5 µM); in the data set with Klebsiella pneumoniae [19], 2 µg/mL (≈ 4 µM). The same compound gave an inhibition at 10 µM against hERG (KCNH2) [2] of 3.9%. The inhibition at 1 µM on hERG (KCNH2) [5] was under 1%. The IC50 at DNA gyrase is 47 nM; in data set [21] it was over 20000 nM; in data set [22], 39 nM. Moreover, the 20% effect concentration (IC20) on hERG (KCNH2) [20] is over 10000 nM.
`CS(=O)(=O)NCCOc1cc(C#N)c2c(c1)CC(CNCCC1CN(c3ccc4c(n3)NC(=O)CO4)C(=O)O1)C2` (stereo not given): the MIC in the data set with Klebsiella pneumoniae [1] was at most 0.06 µg/mL; in the data set with Escherichia coli [3] (setting [23]), 0.5 µg/mL (≈ 0.876 µM); with Pseudomonas aeruginosa [4], 4 µg/mL (≈ 7.01 µM); in the data set with Pseudomonas aeruginosa [6] it was 4 µg/mL (≈ 7.01 µM); in the data set on Acinetobacter baumannii [7], 4 µg/mL (≈ 7.01 µM); in the data set on Staphylococcus aureus [8], 0.25 µg/mL (≈ 0.438 µM). The MIC in the data set with Klebsiella pneumoniae [9] was 16 µg/mL (≈ 28 µM); with Acinetobacter baumannii [10], 2 µg/mL (≈ 3.5 µM); in the data set with Escherichia coli [11], 2 µg/mL (≈ 3.5 µM); in the data set on Pseudomonas aeruginosa [12], 1 µg/mL (≈ 1.75 µM); in the data set with Klebsiella pneumoniae [13], 16 µg/mL (≈ 28 µM); in the data set with Escherichia coli [14] it was at most 0.06 µg/mL. For the same compound, the MIC with Escherichia coli [15] was found to be 1 µg/mL (≈ 1.75 µM); with Acinetobacter baumannii [16] it was 4 µg/mL (≈ 7.01 µM); in the data set on Staphylococcus aureus [17], 0.5 µg/mL (≈ 0.876 µM); in the data set with Escherichia coli [18] it was 1 µg/mL (≈ 1.75 µM); in the data set with Klebsiella pneumoniae [19], 16 µg/mL (≈ 28 µM). Besides, at hERG (KCNH2) [2], at 10 µM the inhibition was 30%. On hERG (KCNH2) [5], the inhibition at 1 µM is under 1%. The values for the IC50 (against DNA gyrase; in data set [21]; in data set [22]) were 26 nM, over 20000 nM and 32 nM, respectively. Besides, the IC20 on hERG (KCNH2) [20] was 5900 nM.
For the compound `CN(C(=O)CN1CCC1)c1cc(F)c2c(c1)CC(CNCCC1CN(c3cnc4c(n3)NC(=O)CO4)C(=O)O1)C2` (stereo not given), the MIC was over 64 µg/mL in the data set on Klebsiella pneumoniae [1]; 16 µg/mL (≈ 28.9 µM) with Escherichia coli [3] (setting [23]); 64 µg/mL (≈ 116 µM) in the data set with Pseudomonas aeruginosa [4]; over 64 µg/mL in the data set on Pseudomonas aeruginosa [6]; over 64 µg/mL in the data set with Acinetobacter baumannii [7]; 64 µg/mL (≈ 116 µM) with Staphylococcus aureus [8]. The MIC in the data set with Klebsiella pneumoniae [9] was over 64 µg/mL; in the data set on Acinetobacter baumannii [10] it was over 64 µg/mL; in the data set with Escherichia coli [11] it was 64 µg/mL (≈ 116 µM); in the data set with Pseudomonas aeruginosa [12] it was 64 µg/mL (≈ 116 µM); in the data set on Klebsiella pneumoniae [13], over 64 µg/mL; in the data set on Escherichia coli [14], 1 µg/mL (≈ 1.81 µM). For the same compound, the MIC in the data set on Escherichia coli [15] was 32 µg/mL (≈ 57.8 µM); in the data set on Acinetobacter baumannii [16] it was over 64 µg/mL; in the data set with Staphylococcus aureus [17] it was over 64 µg/mL; in the data set with Escherichia coli [18], 32 µg/mL (≈ 57.8 µM); with Klebsiella pneumoniae [19] it was over 64 µg/mL. Also, the IC50 against DNA gyrase was 1100 nM; in data set [22] it was 150 nM.
In the case of `C[C@@H](C(=O)Nc1cc(F)c2c(c1)CC(CNCCC1CN(c3cnc4c(n3)NC(=O)CO4)C(=O)O1)C2)N(C)C` (stereo in doubt; 2i), the MIC is at most 0.06 µg/mL with Klebsiella pneumoniae [1]; “<=0.06 ug ml-1” in the data set with Escherichia coli [3] (time 20-24 hrs); 2 µg/mL (≈ 3.69 µM) in the data set on Pseudomonas aeruginosa [4]; 4 µg/mL (≈ 7.39 µM) with Pseudomonas aeruginosa [6]; 0.25 µg/mL (≈ 0.462 µM) with Staphylococcus aureus [8]; 0.25 µg/mL (≈ 0.462 µM) with Acinetobacter baumannii [10]. Besides, the MIC was 0.125 µg/mL (≈ 0.231 µM) in the data set with Escherichia coli [11]; 8 µg/mL (≈ 14.8 µM) in the data set with Klebsiella pneumoniae [13]; at most 0.06 µg/mL in the data set with Escherichia coli [14]; 0.125 µg/mL (≈ 0.231 µM) with Escherichia coli [15]; 8 µg/mL (≈ 14.8 µM) in the data set with Acinetobacter baumannii [16]; 1 µg/mL (≈ 1.85 µM) with Staphylococcus aureus [17]. Also, in the data set with Klebsiella pneumoniae [19], the MIC amounted to 2 µg/mL (≈ 3.69 µM). In addition, on hERG (KCNH2) [20], the 20% effect level (IC20) was put at 33000 nM. The same compound showed an IC50 in data set [21] of 105000 nM.

In general, MIC refers to the lowest concentration found to suppress growth. A word on the inhibition: it is the change of the read-out against control, counted positive when it falls. One may read the IC50 as the midpoint of a concentration-inhibition curve. The IC20 is the concentration at which the effect reaches the 20% level. Read a low IC20 as an effect from little substance.

The values are drawn from ChEMBL document CHEMBL5390317, “Novel Indane-Containing NBTIs with Potent Anti-Gram-Negative Activity and Minimal hERG Inhibition” (ACS Med Chem Lett, 2023).
